{"source": "patent US10813914B2", "about": "“Composition for controlling microsporidia in fishes and method for controlling microsporidia in fishes using same” (MARUHA NICHIRO CORPORATION, priority 2016, dated 2020)", "key": {"[1]": {"tested_on": "microsporidian cyst (beko cyst), beko disease", "experiment": "Prevention test of beko disease in Mojako using fenbendazole (1-1)", "assay_type": "in vivo, “Mojako” (yellowtail larva)", "conditions": "20 mg/kg Bw oral, 6 times/week, 6 weeks, 10 fishes tested; for Positive average per fish (average number of beko cyst per fish): p < 0.05 vs control", "experimental": "1-1: Prevention Test of Beko Disease in “Mojako” Using Fenbendazole\nThe prevention test was conducted according to the following procedure.\n(§1) Test number: Live 1000 fishes (each initial body weight: 12 g)\n(§2) Administration method: oral administration (feed together with spreading agent)\nDrug used: fenbendazole (compound represented by the above-described formula (1))\n(§3) Administration amount: 20 mg/kg Bw (20 mg per kg of fish body weight)\nInterval between administration: 6 times/week\nA sampling test was carried out according to the following procedure:\nSix weeks after the start of administration, each 10 fishes of “Mojako” were taken out from each test group (a control group (the test was conducted under the same conditions as the above-described test conditions, except that the feed fed contained no fenbendazole) and a fenbendazole group), and each fish was cut into three pieces. It was then visually tested whether the microsporidian cyst (beko cyst) was found in the pieces. When the beko cyst was observed, it was judged as positive and the results were accumulated. Regarding the beko cyst that could be confirmed with the naked eye, the number was confirmed and the average infection number per one fish was determined."}, "[2]": {"tested_on": "microsporidian cyst (beko cyst), beko disease", "experiment": "Prevention test of beko disease in Mojako using flubendazole (1-2)", "assay_type": "in vivo, “Mojako” (yellowtail larva)", "conditions": "20 mg/kg Bw oral, 6 times/week, 4 weeks, 10 fishes tested; for Positive average per fish (average number of beko cyst per fish): p < 0.05 vs control", "experimental": "1-2. Prevention Test of Beko Disease in “Mojako” Using Flubendazole\nA preliminary test was carried out according to the following procedure:\nas §1, §2\nDrug used: flubendazole (compound represented by the above-described formula (6))\nas §3\n(§4) Administration interval: 6 times/week\nSampling test procedure: same as above 1-1"}, "[3]": {"tested_on": "microsporidian cyst (beko cyst), beko disease", "experiment": "Prevention test of beko disease in Kanpachi using triclabendazole (1-8)", "assay_type": "in vivo, “Kanpachi” (great amberjack)", "conditions": "40 mg/kg Bw oral, 6 times/week", "experimental": "A Prevention test of the beko disease in “Kanpachi” was carried out using triclabendazole. The preliminary test was performed according to the following procedure:\nTest number: Live 1000 fishes (each initial body weight: 50 g)\nas §2\nDrug used: triclabendazole (compound represented by the above-described formula (10))\nAdministration amount: 40 mg/kg Bw (40 mg per kg of fish body weight)\nas §4\nSampling test procedure: same as in the above-described 1-1"}, "Glugea plecoglossi": {"tested_on": "Glugea plecoglossi", "conditions": "glugeosis of Ayu, Non-Patent Document 1; cited from earlier work"}, "Heterosporis anguillarum": {"tested_on": "Heterosporis anguillarum", "conditions": "beko disease of eels, Non-Patent Document 2; cited from earlier work"}, "microsporidia": {"tested_on": "microsporidia", "conditions": "culture test, Non-Patent Documents 3 to 7; cited from earlier work"}}, "note": "Marks after values point to notes of the source that are not given here."}
{"compound": "COC(=O)Nc1nc2cc(Sc3ccccc3)ccc2[nH]1", "note": "[Fenbendazole, fenbendazole]", "values": [{"measurement": "Number of Beko cyst", "setting": "[1]", "result": 30}, {"measurement": "Number of positive fishes", "setting": "[1]", "result": 6}, {"measurement": "Positive average per fish (average number of beko cyst per fish)", "setting": "[1]", "result": "3.5 ± 3.83"}, {"measurement": "Positive average per fish (average number of beko cyst per fish)", "setting": "[1]; listed as fenbendazole", "result": "3.5±3.83"}]}
{"compound": "COC(=O)Nc1nc2cc(C(=O)c3ccc(F)cc3)ccc2[nH]1", "note": "[Flubendazole, flubendazole]", "values": [{"measurement": "Number of Beko cyst", "setting": "[2]", "result": 10}, {"measurement": "Number of positive fishes", "setting": "[2]", "result": 5}, {"measurement": "Positive average per fish (average number of beko cyst per fish)", "setting": "[2]", "result": "1.0 ± 1.1"}, {"measurement": "Positive average per fish (average number of beko cyst per fish)", "setting": "[2]; listed as flubendazole", "result": "1.0±1.1"}]}
{"compound": "CSc1nc2cc(Cl)c(Oc3cccc(Cl)c3Cl)cc2[nH]1", "note": "[Triclabendazole, triclabendazole]", "values": [{"measurement": "Positive fishes (beko cyst) / fishes sampled", "setting": "[3]; 8 Weeks, p < 0.001, 40 mg/kg", "result": "0/50***"}, {"measurement": "Positive fishes (beko cyst) / fishes sampled", "setting": "[3]; 8 Weeks, p < 0.001, listed as triclabendazole, 40 mg/kg", "result": "significantly suppressed generation of the beko cyst"}, {"measurement": "Positive fishes (beko cyst) / fishes sampled", "setting": "[3]; at administration start time", "result": "0/20"}]}
{"compound": "CO[C@@H]1[C@H](OC(=O)/C=C/C=C/C=C/C=C/C(=O)O)CC[C@]2(CO2)[C@H]1[C@@]1(C)O[C@@H]1CC=C(C)C", "note": "[fumagillin]", "values": [{"measurement": "Therapeutic efficacy", "setting": "Glugea plecoglossi", "result": "high therapeutic efficacy was recognized"}, {"measurement": "Therapeutic efficacy", "setting": "Heterosporis anguillarum", "result": "high therapeutic efficacy was recognized"}, {"measurement": "Antimicrobial activity against microsporidia", "setting": "microsporidia", "result": "high antimicrobial activity"}]}
